Where “and” joins values, the source holds several entries; their conditions need not be identical. Equal entries are not always repeated.
Assay: Speciation / hydrolytic stability of POT solutions in 50 mM Na-citrate buffer pH 6.8 by 31P-NMR and 183W-NMR
Format: physicochemical
Details: for 31P-NMR spectrum 96 h after preparation compared with 48 h: for [P2W12]: signal at −8.3 ppm of hexalacunary anion; for Share of unidentified / unstable solution intermediates: 31P-NMR integrated POT signals, aged solutions; for Share of monolacunary [α2-P2W17O61]10− in solution, 48 h after preparation / Share of monolacunary [α2-P2W17O61]10− in solution, fresh (1 h after preparation) / Share of unchanged educt anion in solution, after 48 h / Share of unchanged educt anion in solution, fresh (1 h): 31P-NMR peak integration; for Share of free phosphate in solution: fresh and 48 h aged ([P2W15]), after rearrangement ([P2W12])
Experimental: The detailed structural information about species under the respective experimental conditions is essential for understanding of POT activity. […] The concentration of all species was calculated based on ^31P-NMR peaks integration. Since the stock solutions of each Wells–Dawson POT was used up to three days after preparation and ^183W-NMR acquisition takes 60 h, ^31P-NMR spectra for all four solutions have been recorded 1 h and 48 h after preparation to check if speciation changes occur over time. […] In the solution of intact POT one hour after preparation 12% of [α2-P^V2W^VI17O61]^10− was detected based on ^31P-NMR peaks integration (Fig. 3A), whereas 48 h after dissolution the concentration of monolacunary anion increased to 69%. […] The ^183 W-NMR spectra of monolacunary [P2W17]^10− (Fig. S8A) and trilacunary [P2W15]^12− (Fig. S8C) are in agreement with ^31P-NMR data confirming the presence of only the monolacunary anion by 9 signals. The ^31P-NMR spectrum of fresh hexalacunary POT [P2W12]^12− (Fig. 3D) points to the presence of unhydrolyzed hexalacunary [H2P^V2W^VI12O48]^12− (72%) together with a low amount of monolacunary [α2-P^V2W^VI17O61]^10− (20%). After 48 h, the signals corresponding to hexalacunary [H2P^V2W^VI12O48]^12− and monolacunary [α2-P^V2W^VI17O61]^10− decreased to 9% and 3%, respectively, while two intense signals at − 7.5 and − 9.5 ppm appeared. […] The signal at − 7.5 ppm corresponds to [P^V8W^VI48O184]^40−, which was previously detected in solutions with a high amount of NH 4^+[37]. The presence of four different POTs in [P2W12]^12− 48 h after preparation renders the detection of all species’ signals in the ^183W-NMR spectrum impossible due to their low concentrations and the low abundancy (14%) of the ^183W isotope (Fig. S8D). The most intense signals at -190.3, -191.6 and -211.3 ppm correspond to three types of W ions in cyclic [P^V8W^VI48O184]^40−[43]. ^31P-NMR spectra recorded 96 h after preparation are identical to those recorded after 48 h for [P2W18]^6−, [P2W17]^10− and [P2W15]^12−. […] In every ^31P-NMR analysis, peaks for free phosphate were observed, indicating the release of HxPO4^x−3 from the POT clusters as a consequence of partial decomposition or rearrangement (Fig. 3). The weak signals between − 12 and − 7 ppm in the ^31P-NMR spectra (Fig. 3) with a total amount of no more than 19% of all POT signals, correspond to solution intermediates of unknown identity that have been reported previously.
^183W-NMR and ^31P-NMR were recorded with a Bruker FT-NMR spectrometer Avance Neo 500 MHz (Bruker, Rheinstetten, Germany) at 25 °C. Chemical shifts were measured relative to 1 M Na2WO4 and 85% H3PO4. ^183W-NMR samples were prepared in 2.7 mL Na-citrate buffer (50 mM, pH 6.8) with a POT concentration of 2 mM with or without 1 mM L-DOPA and measured in 10 mm tubes. The experimental time was ca. 60 h, with a standard pulse program at 20.836 MHz and a 63° flip angle with 1 s relaxation delay. Subsequently, ^31P-NMR was measured at 202.53 MHz.
^183W-NMR was performed in 50 mM Na-citrate buffer at pH 6.8 to obtain insight into the chemical speciation and hydrolytic stability of POTs. The peaks of the ^183W-NMR for [P2W18]^6− are shifted by approx. 4–5 ppm downfield relative to the assignment in the literature (Table S2). The slight shifting can be explained by different buffer conditions and ionic strength of the solution with regard to the reference data.
The ^183W-NMR speciation indicates the presence of [α2-P^V2W^VI17O61]^10− anions in [P2W18]^6−, [P2W17]^10−, [P2W15]^12− at pH 6.8 (Figs. S8, S12). For the ^183W-NMR of [P2W18]^6− at pH 4 two lines (1:2) were assigned (Fig. S7), whereas for the same compound at neutral pH a mixture of [α-P^V2W^VI18O62]^6− (1:2) and [α2-P^V2W^VI17O61]^10− (2:2:2:2:1:2:2:2:2) was observed (Fig. S8). Also, the β-isomer was detected at pH 4 and pH 6.8, respectively (Figs. S7, S8). […]

[1] = 31P-NMR, 50 mM Na-citrate pH 6.8

With “K10[α2-P^V2W^VI17O61]·20H2O [[P2W17]^10−]” the “31P-NMR spectrum 96 h after preparation compared with 48 h” value (50 mM Na-citrate pH 6.8) was “identical”, the “Share of unidentified / unstable solution intermediates” value (50 mM Na-citrate pH 6.8) was 8% and the “Share of monolacunary [α2-P2W17O61]10− in solution, 48 h after preparation” value (shortened to “Share of monolacunary … 48 h after preparation”) (50 mM Na-citrate pH 6.8) was 92%. The “Influence of the substrate L-DOPA on the POT solution (reduction / speciation)” value (from here on “Influence … (reduction / speciation)”) (50 mM Na-citrate pH 6.8) was “no change in speciation”, the “Dominant POT species at pH 6.8 in Na-citrate buffer” value (from here on “Dominant POT species”) was “Hx[α2-P^V2W^VI17O61]^(10−x)−” and the “Stable in Na-citrate buffer at pH 6.8” value was “Yes”.

For K12[P^V2W^VI15O56]·24H2O [[P2W15]^12−], the “31P-NMR spectrum 96 h after preparation compared with 48 h” value (50 mM Na-citrate pH 6.8) was “identical”, the “Share of unidentified / unstable solution intermediates” value (50 mM Na-citrate pH 6.8) was 3% and 5% and the “Share of monolacunary … 48 h after preparation” value (50 mM Na-citrate pH 6.8) was 62% and 61%. For the same substance, the “Share of monolacunary [α2-P2W17O61]10− in solution, fresh (1 h after preparation)” value (shortened to “Share of monolacunary … (1 h after preparation)”) (50 mM Na-citrate pH 6.8) was 62%, the “Share of monolacunary … (1 h after preparation)” value (50 mM Na-citrate pH 6.8, listed as [P^V2W^VI15O56]^12−) was ~ 62% and the “Share of free phosphate in solution” value [1] was 35%. The “Influence … (reduction / speciation)” value (50 mM Na-citrate pH 6.8) was “no change in speciation”, the “Dominant POT species” value was “Hx[α2-P^V2W^VI17O61]^(10−x)−” and the “Stable in Na-citrate buffer at pH 6.8” value was “No”.

With “(NH4)12[H2P^V2W^VI12O48]·24H2O [[P2W12]^12−]” the “31P-NMR spectrum 96 h after preparation compared with 48 h” value (50 mM Na-citrate pH 6.8) was “disappeared completely”, the “Share of unidentified / unstable solution intermediates” value (50 mM Na-citrate pH 6.8) was 19% and the “Share of monolacunary … 48 h after preparation” value (50 mM Na-citrate pH 6.8) was 3%. For the same substance, the “Share of monolacunary … (1 h after preparation)” value (50 mM Na-citrate pH 6.8) was 20%, the “Share of unchanged educt anion in solution, after 48 h” value (50 mM Na-citrate pH 6.8) was 9% and the “Share of unchanged educt anion in solution, fresh (1 h)” value (50 mM Na-citrate pH 6.8) was 72%. For the same substance, the “Share of [P2W19O69(H2O)]14− in solution after 48 h” value [1] was 22%, the “Share of [P8W48O184]40− in solution after 48 h” value [1] was 23% and the “Share of free phosphate in solution” value [1] was 24%. The “Influence … (reduction / speciation)” value (50 mM Na-citrate pH 6.8) was “no change in speciation”, the “Dominant POT species” value was “[H2P^V2W^VI12O48]^12− + Hx[α2-P^V2W^VI17O61]^(10−x)− + [P^V2W^VI19O69(H2O)]^14− + [P^V8W^VI48O184]^40−” and the “Stable in Na-citrate buffer at pH 6.8” value was “No”.

In the case of “K6[α/β-P^V2W^VI18O62]·14H2O [[P2W18]^6−]”, the “31P-NMR spectrum 96 h after preparation compared with 48 h” value (50 mM Na-citrate pH 6.8) is reported as “identical”, the “Share of unidentified / unstable solution intermediates” value (50 mM Na-citrate pH 6.8) is reported as 9% and the “Share of monolacunary … 48 h after preparation” value (50 mM Na-citrate pH 6.8) is reported as 69%. For the same substance, the “Share of unchanged educt anion in solution, after 48 h” value (50 mM Na-citrate pH 6.8) was 15%, the “Share of unchanged educt anion in solution, fresh (1 h)” value (50 mM Na-citrate pH 6.8) was 88% and the “Share of monolacunary … 48 h after preparation” value (50 mM Na-citrate pH 6.8, listed as [α/β-P^V2W^VI18O62]^6−) was ~ 69%. For the same substance, the “Influence … (reduction / speciation)” value (50 mM Na-citrate pH 6.8) was “turned blue”, the “Sample composition after 28 days storage” value (Na-citrate buffer pH 6.8, room temperature, 183W-NMR and 31P-NMR) was “low amounts of the α-isomer were found, but no β-isomer was detected” and the “Dominant POT species” value was “Hx[α2-P^V2W^VI17O61]^(10−x)−”. The “Stable in Na-citrate buffer at pH 6.8” value was “No”.

From PMC8481536, “Wells–Dawson phosphotungstates as mushroom tyrosinase inhibitors: a speciation study” (Scientific Reports, 2021)
